Test results: US12594282B2, “Use of small molecule compounds in the treatment of diseases mediated by lung epithelial cell injury and/or vascular endothelial cell injury” (Guangzhou Cellprotek Pharmaceutical Co., Ltd., priority 2020, dated 2026)

What was measured:
PFKFB3 = assay: Glutamate-induced PFKFB3 expression in primary cerebellar granule neurons (Western blot); type: cell-based, mice; conditions: 10 μM, pre-incubation 20 mins; 200 μM glutamate for 5 mins and 15 mins
Procedure: The cells were obtained from SD P7-8 neonatal mice. The cerebellum was taken, and the meninges and blood vessels were removed using microtweezers; the isolated cerebellar tissue was transferred to another dish containing dissection solution. The tissue was cut into pieces as small as possible using a tissue scissor. Digestion: The tissue in pieces was added into 7 mL of 0.25% trypsin digestive solution with a pipet, and was digested at 37° C. for 15 mins; the bench surface was cleaned and the instruments were washed. The container was turned upside down several times every five minutes to bring the tissue into better contact with the digestive solution. End of digestion: After the digestion, it can be seen that the tissue was sticked together and suspended in the liquid due to cell disruption and release of DNA. The digestion was terminated by adding 3 mL of […] 10% FBS DMEM medium. The container was turned upside down several times, and it can be observed that the remaining tissue dispersed due to DNA hydrolysis. Centrifugation was performed at 1000 rpm for 5 mins. As much supernatant as possible was carefully removed. Collection of single cell suspension: 7 mL of DNase-containing 10% FBS DMEM medium was taken with a pipet, by which the tissue pellet was gently pipeted. […] The cells were counted with a hand-held cell counter, and the seeding density was 4.0-5.0×10^5 cells/mL. […]

NR4A3 = NR4A3 protein expression under OGD-R, HUVEC (Western blot, immunofluorescence); type: cell-based, human; conditions: OGD 4 hours, restoration 24 hours, 1, 3, 10 μM given at restoration
Procedure: HUVEC cells were cultured in modified DMEM medium containing 10% fetal bovine serum. When the cells reached about 80% confluence, the cells were digested with 0.25% trypsin, and then pipetted evenly with modified DMEM containing 10% […]. The cell concentration was adjusted to 1×10^5 cells/mL, and the cells were seeded at 400 uL/well in a 24-well plate, and the experiment was carried out when the cells grew to about 70% confluence. RAOEC cells were cultured in high-glucose DMEM medium containing 10% fetal bovine serum, and the seeding conditions were the same as those of HUVEC. During the OGD-R injury treatment, the hypoxia workstation was set to have an oxygen concentration of 1% (1% O2, 5% CO2, 94% N2), a temperature of 37° C., and a humidity of 85%. A sugar-free DMEM medium was placed in the hypoxia workstation for pre-hypoxia for 3 hours. The medium in the culture plate was aspirated, and the plate was washed twice with preheated sugar-free DMEM medium, and 100 uL of sugar-free DMEM medium was added to each well. The culture plate was placed in the hypoxia workstation, and 300 uL of pre-hypoxic sugar-free DMEM medium was added to each well, and then the culture plate was placed in the hypoxia workstation for additional hypoxia for 4 hours. Restoration was then performed. The culture plate was taken out, and the sugar-free DMEM medium was replaced with 400 uL of normal medium containing 10% fetal bovine serum, and then the plate was placed in a 37° C. 5% CO2 cell incubator for culturing for 24 hours or a specified time period. For the cells in the normal group, it was only replaced with 400 uL of new normal medium containing 10% fetal bovine serum. […]
The cells were washed twice with pre-cooled PBS, then scraped off with a cell scraper and transferred to a 1.5 mL centrifuge tube, and centrifugation was performed at 4° C. and 1000 g for 5 minutes. […] Each protein sample was then quantified using the BCA protein quantification kit. After protein quantification, protein lysis buffer was used to adjust the protein concentration of each sample to be consistent with the protein sample with the lowest concentration, and then each protein sample was sufficiently mixed with 5× protein loading buffer at a ratio of 4:1. […]

With `C[C@@]12CCCC1C1C[C@@H](O)[C@]3(O)C[C@@H](O)CC[C@]3(C)C1CC2` (stereo partly drawn) [YC-6, 5α-androst-3β,5,6β-triol] as the compound, how does the “glutamate-induced up-regulation of intracellular PFKFB3 expression” value (PFKFB3) read?
Its value is “significantly inhibited this rapid increase”.

And the NR4A3 protein expression (NR4A3)?
The NR4A3 protein expression was “dose-dependently increase the protein expression of NR4A3”.
